System: A. nidulans, C. albicans, C. albicans 95-158 Flu-R, Cryp. neomormans, Candida krusei, and C. glabrata
Assay: Fungicidal test, viability of treated fungal cells spotted on YPD agar
Format: cell-based
Settings: after 72 h exposure

SMILES	resistance in treated fungi
C=C1CC[C@H]2C(C)(C)CCC[C@]2(C)[C@H]1CO [Albicanol, (+)-albicanol]	not observed
CC1=CC[C@H]2C(C)(C)CCC[C@]2(C)[C@H]1CO [drimenol, (−)-drimenol]	not observed

— US8980951B2, “Sesquiterpenes for antifungal applications” (Kansas State University Research Foundation, priority 2011, dated 2015)
